ChEMBL document CHEMBL1139555, “Discovery of potent and selective phenylalanine based dipeptidyl peptidase IV inhibitors” (Bioorg Med Chem Lett, 2005)
pIC50: −log10 of the molar value.

Columns and labels:
[1] = Oral bioavailability in rat; format: ADME, organism-based; details: in vivo
[2] = Plasma cearance of compound was determined in rat; format: ADME, organism-based; details: read-out: Clp
Dipeptidyl peptidase 9 = Dipeptidyl peptidase 9 (Homo sapiens, UniProt Q86TI2)
Dipeptidyl peptidase 4 = Dipeptidyl peptidase 4 (Homo sapiens, UniProt P27487)
Dipeptidyl peptidase 2 = Dipeptidyl peptidase 2 (Homo sapiens, UniProt Q9UHL4)
[3] = Plasma half-life of compound was determined in rat; format: ADME, cell-free
Dipeptidyl peptidase 8 = Dipeptidyl peptidase 8 (Homo sapiens, UniProt Q6V1X1)
[4] = biological target: Voltage-gated inwardly rectifying potassium channel KCNH2 (Homo sapiens, UniProt Q12809)
Chain of Voltage-gated inwardly rectifying potassium channel KCNH2 (Q12809 whole entry): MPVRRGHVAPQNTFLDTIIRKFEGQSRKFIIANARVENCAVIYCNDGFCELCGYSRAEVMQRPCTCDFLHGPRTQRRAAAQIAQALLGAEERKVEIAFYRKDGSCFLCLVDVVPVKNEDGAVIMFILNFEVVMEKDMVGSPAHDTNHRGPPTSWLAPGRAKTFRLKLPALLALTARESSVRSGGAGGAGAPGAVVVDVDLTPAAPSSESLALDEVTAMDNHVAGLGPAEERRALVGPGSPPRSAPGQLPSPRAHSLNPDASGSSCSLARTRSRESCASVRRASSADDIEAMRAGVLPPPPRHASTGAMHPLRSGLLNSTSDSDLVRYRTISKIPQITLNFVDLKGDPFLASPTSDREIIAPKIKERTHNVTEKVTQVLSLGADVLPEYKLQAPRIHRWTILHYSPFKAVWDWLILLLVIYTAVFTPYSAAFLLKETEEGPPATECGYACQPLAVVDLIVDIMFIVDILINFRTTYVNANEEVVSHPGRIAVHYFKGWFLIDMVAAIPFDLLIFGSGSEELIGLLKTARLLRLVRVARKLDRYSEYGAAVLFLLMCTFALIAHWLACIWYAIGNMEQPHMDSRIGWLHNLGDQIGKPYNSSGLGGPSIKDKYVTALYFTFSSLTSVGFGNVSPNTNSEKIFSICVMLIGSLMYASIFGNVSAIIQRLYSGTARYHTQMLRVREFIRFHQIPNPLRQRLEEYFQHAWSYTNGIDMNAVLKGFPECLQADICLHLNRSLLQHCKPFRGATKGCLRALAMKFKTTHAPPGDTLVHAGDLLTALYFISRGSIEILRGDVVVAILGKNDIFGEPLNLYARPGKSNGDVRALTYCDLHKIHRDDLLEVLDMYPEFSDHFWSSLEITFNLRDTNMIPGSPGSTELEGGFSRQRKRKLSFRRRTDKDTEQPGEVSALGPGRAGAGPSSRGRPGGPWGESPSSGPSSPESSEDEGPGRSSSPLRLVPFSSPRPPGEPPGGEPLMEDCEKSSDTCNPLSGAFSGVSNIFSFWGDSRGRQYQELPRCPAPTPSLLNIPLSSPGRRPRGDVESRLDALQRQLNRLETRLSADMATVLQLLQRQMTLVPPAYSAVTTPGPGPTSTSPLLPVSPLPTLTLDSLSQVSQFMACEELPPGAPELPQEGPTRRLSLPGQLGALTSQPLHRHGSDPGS

Chain of Dipeptidyl peptidase 4 (P27487 whole entry): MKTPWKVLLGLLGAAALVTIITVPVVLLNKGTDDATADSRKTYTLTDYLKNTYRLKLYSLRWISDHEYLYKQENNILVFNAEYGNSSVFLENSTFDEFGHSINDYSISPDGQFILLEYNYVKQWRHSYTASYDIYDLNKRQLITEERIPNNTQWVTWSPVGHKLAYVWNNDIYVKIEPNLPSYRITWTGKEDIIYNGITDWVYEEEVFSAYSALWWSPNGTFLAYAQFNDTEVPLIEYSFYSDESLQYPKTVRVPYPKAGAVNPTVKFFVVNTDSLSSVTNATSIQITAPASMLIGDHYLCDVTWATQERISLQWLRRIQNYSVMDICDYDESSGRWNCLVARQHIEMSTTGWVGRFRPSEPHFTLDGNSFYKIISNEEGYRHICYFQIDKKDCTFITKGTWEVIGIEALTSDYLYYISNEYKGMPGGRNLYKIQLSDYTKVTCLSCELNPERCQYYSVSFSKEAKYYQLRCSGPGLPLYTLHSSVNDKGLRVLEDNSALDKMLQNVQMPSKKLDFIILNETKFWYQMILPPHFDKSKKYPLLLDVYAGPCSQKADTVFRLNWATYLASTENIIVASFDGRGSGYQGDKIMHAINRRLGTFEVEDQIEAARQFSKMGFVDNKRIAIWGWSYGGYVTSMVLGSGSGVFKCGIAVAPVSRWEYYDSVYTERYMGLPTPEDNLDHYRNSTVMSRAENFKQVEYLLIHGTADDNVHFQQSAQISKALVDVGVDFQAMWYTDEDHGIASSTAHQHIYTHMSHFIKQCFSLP
Chain of Dipeptidyl peptidase 9 (Q86TI2 whole entry): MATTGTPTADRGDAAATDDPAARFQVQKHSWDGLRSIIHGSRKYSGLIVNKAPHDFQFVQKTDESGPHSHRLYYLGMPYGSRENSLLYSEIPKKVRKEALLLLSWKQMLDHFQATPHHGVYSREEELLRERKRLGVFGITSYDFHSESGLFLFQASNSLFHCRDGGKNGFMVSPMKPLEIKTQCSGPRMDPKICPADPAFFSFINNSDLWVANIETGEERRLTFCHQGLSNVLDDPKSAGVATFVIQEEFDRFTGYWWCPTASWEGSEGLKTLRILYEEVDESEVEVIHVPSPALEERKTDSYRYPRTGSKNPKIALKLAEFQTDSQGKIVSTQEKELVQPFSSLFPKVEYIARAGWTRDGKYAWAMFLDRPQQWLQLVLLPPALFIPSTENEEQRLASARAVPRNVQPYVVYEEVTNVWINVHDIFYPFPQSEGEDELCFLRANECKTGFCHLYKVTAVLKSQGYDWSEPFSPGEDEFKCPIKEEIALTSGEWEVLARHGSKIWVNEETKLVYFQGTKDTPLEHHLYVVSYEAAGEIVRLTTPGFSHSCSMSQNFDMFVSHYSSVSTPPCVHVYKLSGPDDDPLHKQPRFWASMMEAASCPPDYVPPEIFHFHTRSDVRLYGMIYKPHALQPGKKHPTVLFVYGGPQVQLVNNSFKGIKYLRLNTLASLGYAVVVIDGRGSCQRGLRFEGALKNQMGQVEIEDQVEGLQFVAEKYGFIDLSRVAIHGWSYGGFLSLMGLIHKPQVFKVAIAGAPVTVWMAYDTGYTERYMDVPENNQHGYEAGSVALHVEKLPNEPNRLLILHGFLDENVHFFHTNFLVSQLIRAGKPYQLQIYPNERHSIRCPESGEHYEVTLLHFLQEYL
Chain of Dipeptidyl peptidase 8 (Q6V1X1 whole entry): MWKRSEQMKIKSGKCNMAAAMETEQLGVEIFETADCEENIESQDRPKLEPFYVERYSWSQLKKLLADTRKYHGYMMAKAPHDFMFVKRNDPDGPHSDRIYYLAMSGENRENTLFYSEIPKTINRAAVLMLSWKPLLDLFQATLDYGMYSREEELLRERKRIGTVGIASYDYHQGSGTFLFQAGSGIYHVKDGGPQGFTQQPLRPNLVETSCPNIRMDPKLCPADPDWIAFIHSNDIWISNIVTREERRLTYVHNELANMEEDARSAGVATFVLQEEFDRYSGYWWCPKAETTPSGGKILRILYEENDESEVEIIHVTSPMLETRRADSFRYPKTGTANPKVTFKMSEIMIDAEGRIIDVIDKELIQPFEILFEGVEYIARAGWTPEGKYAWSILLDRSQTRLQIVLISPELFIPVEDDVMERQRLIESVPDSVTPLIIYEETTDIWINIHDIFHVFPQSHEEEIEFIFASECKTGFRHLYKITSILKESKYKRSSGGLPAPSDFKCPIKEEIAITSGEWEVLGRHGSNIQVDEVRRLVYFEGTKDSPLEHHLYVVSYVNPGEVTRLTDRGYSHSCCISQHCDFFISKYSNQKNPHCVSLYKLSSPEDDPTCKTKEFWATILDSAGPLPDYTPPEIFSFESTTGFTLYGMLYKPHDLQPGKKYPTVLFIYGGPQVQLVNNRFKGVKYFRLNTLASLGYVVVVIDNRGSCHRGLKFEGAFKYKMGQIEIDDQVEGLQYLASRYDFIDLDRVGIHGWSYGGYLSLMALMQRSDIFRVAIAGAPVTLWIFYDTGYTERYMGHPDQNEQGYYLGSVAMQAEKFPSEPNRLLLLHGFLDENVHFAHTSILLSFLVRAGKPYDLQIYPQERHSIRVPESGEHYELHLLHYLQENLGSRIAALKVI

bioavailability [1]	clearance [2]	pIC50 (Dipeptidyl peptidase 9)	pIC50 (Dipeptidyl peptidase 4)	pIC50 (Dipeptidyl peptidase 2)	half-life [3]	pIC50 (Dipeptidyl peptidase 8)	Structure (SMILES)	pIC50 [4]
2.3%	50.8 mL/min/kg	< 4.00	7.25	5.04	24 min	< 4.00	C[C@@H](c1ccc(-c2cccc(C(=O)O)c2)cc1)[C@H](N)C(=O)N1CC[C@H](F)C1.O=C(O)C(F)(F)F	
4.2%	23.9 mL/min/kg	< 4.00	8.52	5.96	66 min	< 4.00	C[C@@H](c1ccc(-c2cccc(-c3noc(O)n3)c2)cc1)[C@H](N)C(=O)N1CC[C@H](F)C1.O=C(O)C(F)(F)F	4.55
